Laboratory results taken from patent US11242346B2, “Mechanistic target of rapamycin signaling pathway inhibitors and therapeutic applications thereof” (SUZHOU KINTOR PHARMACEUTICALS, INC., priority 2016, dated 2022).

What was measured:
[1] = target: mTOR (FRAP1) (Homo sapiens, UniProt P42345); experiment: SelectScreen Profiling, Z'-LYTE kinase assay, mTOR (FRAP1); assay type: biochemical; conditions: 0.1 μM compound, ATP at Km, read-out: mTOR inh% @0.1 μM
Source text: (§1) Some of the example compounds were submitted to Life Technologies Corporation SelectScreen® Profiling Service to test their potency in inhibiting the kinase catalytic activities of mTOR, PI3Kα, VEGF2, FGFR1, HER1 (EGFR) and HER2. A concentration of ATP at the Km of the corresponding kinase was used for all assays. The mTOR (FRAP1), VEGF2, FGFR1, HER1 (EGFR) and HER2 assays used Z′-LYTE® technology. The PI3Kα assay used Adapta® technology. The symbol “inh %” as used herein generally refers to inhibition percentage.

[2] = target: PI3Kα (Homo sapiens, UniProt P42336); experiment: SelectScreen Profiling, Adapta kinase assay, PI3Kα; assay type: biochemical; conditions: 0.1 μM compound, ATP at Km, read-out: PI3Kα inh % @0.1 μM
Chain of PI3Kα (P42336 whole entry): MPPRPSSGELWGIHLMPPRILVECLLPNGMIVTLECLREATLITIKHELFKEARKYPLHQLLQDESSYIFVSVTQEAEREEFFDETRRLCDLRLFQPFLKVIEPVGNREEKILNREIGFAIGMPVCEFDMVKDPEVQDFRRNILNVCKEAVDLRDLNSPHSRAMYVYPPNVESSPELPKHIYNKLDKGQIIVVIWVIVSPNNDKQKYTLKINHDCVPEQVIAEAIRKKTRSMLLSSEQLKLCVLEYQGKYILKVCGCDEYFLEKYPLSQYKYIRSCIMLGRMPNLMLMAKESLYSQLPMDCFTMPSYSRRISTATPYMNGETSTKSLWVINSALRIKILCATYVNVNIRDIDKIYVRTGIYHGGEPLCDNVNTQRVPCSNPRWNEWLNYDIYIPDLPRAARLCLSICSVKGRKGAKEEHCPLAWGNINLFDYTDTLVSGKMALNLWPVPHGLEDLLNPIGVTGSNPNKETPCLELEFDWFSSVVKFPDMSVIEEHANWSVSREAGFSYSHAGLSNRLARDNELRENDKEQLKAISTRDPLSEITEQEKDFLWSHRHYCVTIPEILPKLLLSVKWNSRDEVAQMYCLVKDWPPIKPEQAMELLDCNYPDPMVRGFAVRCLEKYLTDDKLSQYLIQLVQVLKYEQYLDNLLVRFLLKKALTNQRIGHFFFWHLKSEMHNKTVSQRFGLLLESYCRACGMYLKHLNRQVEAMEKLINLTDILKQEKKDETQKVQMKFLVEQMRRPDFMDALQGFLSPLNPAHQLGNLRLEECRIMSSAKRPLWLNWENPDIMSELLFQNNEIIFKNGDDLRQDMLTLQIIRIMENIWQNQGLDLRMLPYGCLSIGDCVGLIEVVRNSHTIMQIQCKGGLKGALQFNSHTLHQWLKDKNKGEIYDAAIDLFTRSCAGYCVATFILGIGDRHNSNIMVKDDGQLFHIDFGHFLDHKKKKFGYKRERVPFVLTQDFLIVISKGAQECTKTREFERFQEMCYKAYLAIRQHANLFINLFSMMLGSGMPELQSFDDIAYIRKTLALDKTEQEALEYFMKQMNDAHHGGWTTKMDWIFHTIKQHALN
Chain of PI3Kα (P27986 whole entry partner): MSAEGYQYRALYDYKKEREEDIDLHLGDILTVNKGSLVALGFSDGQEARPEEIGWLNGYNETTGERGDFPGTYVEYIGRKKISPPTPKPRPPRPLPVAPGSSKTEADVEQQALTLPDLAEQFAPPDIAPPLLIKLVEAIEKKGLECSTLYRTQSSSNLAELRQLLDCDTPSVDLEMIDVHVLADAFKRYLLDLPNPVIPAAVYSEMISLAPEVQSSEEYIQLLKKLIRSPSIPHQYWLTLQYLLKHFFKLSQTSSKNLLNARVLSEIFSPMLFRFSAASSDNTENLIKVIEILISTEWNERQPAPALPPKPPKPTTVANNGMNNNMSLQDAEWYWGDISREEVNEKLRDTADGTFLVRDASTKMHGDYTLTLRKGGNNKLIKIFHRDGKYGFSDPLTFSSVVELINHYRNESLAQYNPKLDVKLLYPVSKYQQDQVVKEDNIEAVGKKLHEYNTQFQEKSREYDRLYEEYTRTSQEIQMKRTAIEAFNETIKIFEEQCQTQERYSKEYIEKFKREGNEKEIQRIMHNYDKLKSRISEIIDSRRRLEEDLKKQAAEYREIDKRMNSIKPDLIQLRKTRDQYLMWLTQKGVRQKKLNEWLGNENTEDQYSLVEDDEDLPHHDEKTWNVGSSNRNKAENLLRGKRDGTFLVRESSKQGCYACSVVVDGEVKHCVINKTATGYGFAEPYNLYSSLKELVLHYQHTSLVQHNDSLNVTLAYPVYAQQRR

[3] = target: VEGF2 (Homo sapiens, UniProt P35968); experiment: SelectScreen Profiling, Z'-LYTE kinase assay, VEGF2; assay type: biochemical; conditions: 1 μM compound, ATP at Km, read-out: VEGF 2 inh % @1 μM
Source text: as §1

[4] = target: FGFR1 (Homo sapiens, UniProt P11362); experiment: SelectScreen Profiling, Z'-LYTE kinase assay, FGFR1; assay type: biochemical; conditions: 1 μM compound, ATP at Km, read-out: FGFR 1 inh % @1 μM
Chain of FGFR1 (P11362 22-822): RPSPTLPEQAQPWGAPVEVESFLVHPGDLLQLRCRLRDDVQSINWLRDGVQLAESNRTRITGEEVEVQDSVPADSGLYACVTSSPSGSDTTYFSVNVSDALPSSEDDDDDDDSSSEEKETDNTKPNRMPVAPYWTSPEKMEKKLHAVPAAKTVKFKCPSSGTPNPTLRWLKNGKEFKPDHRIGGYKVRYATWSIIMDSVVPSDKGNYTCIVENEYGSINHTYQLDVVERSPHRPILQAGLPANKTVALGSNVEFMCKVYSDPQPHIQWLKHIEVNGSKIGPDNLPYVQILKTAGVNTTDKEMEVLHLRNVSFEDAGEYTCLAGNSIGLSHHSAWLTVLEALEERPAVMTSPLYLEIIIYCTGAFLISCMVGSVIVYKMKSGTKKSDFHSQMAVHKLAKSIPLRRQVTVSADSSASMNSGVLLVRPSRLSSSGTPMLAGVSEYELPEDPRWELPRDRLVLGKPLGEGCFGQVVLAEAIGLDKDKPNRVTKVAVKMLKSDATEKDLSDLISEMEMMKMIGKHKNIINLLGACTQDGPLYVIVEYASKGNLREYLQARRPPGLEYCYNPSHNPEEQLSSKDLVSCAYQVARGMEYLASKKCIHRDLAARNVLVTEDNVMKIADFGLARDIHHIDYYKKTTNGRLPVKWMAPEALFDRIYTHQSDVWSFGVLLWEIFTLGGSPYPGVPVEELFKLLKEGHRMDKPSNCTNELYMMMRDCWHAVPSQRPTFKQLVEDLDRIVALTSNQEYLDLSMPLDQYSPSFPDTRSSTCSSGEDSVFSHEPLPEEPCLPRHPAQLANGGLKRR
Source text: as §1

[5] = target: HER1 (EGFR) (Homo sapiens, UniProt P00533); experiment: SelectScreen Profiling, Z'-LYTE kinase assay, HER1 (EGFR); assay type: biochemical; conditions: 1 μM compound, ATP at Km, read-out: HER1 inh % @1 μM
Chain of HER1 (EGFR) (P00533 25-1210): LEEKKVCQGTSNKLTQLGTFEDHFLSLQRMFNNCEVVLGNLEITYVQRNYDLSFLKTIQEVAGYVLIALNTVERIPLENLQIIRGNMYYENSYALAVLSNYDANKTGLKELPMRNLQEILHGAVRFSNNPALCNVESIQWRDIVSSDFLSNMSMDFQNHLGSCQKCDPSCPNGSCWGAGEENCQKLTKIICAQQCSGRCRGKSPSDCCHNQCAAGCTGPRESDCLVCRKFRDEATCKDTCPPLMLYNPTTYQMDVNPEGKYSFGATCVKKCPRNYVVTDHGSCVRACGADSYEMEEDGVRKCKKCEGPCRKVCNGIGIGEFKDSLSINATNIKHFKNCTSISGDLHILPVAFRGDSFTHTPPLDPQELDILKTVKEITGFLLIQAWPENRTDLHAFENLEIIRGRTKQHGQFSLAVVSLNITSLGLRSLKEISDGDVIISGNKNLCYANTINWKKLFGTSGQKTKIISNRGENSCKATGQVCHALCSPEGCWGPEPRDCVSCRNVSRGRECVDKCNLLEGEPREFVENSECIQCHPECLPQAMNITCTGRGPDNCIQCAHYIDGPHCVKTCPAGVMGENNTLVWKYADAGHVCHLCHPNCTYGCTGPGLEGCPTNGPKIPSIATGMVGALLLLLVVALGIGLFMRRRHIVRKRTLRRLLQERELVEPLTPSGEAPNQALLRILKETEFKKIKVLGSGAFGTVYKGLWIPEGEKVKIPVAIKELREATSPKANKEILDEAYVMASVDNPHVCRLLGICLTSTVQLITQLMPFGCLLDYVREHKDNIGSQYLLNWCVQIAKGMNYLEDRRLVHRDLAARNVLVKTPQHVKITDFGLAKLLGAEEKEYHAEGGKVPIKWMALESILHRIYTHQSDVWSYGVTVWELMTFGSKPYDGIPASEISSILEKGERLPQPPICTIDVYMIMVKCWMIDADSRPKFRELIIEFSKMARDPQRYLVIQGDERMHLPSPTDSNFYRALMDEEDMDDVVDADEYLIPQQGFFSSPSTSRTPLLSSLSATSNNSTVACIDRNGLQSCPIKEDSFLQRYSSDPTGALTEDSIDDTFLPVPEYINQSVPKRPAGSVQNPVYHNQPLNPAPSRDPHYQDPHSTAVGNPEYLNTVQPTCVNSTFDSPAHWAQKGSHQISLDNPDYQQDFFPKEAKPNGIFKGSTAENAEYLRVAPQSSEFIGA
Source text: as §1

[6] = target: HER2 (Homo sapiens, UniProt P04626); experiment: SelectScreen Profiling, Z'-LYTE kinase assay, HER2; assay type: biochemical; conditions: 1 μM compound, ATP at Km, read-out: HER2 inh % @1 μM
Chain of HER2 (P04626 23-1255): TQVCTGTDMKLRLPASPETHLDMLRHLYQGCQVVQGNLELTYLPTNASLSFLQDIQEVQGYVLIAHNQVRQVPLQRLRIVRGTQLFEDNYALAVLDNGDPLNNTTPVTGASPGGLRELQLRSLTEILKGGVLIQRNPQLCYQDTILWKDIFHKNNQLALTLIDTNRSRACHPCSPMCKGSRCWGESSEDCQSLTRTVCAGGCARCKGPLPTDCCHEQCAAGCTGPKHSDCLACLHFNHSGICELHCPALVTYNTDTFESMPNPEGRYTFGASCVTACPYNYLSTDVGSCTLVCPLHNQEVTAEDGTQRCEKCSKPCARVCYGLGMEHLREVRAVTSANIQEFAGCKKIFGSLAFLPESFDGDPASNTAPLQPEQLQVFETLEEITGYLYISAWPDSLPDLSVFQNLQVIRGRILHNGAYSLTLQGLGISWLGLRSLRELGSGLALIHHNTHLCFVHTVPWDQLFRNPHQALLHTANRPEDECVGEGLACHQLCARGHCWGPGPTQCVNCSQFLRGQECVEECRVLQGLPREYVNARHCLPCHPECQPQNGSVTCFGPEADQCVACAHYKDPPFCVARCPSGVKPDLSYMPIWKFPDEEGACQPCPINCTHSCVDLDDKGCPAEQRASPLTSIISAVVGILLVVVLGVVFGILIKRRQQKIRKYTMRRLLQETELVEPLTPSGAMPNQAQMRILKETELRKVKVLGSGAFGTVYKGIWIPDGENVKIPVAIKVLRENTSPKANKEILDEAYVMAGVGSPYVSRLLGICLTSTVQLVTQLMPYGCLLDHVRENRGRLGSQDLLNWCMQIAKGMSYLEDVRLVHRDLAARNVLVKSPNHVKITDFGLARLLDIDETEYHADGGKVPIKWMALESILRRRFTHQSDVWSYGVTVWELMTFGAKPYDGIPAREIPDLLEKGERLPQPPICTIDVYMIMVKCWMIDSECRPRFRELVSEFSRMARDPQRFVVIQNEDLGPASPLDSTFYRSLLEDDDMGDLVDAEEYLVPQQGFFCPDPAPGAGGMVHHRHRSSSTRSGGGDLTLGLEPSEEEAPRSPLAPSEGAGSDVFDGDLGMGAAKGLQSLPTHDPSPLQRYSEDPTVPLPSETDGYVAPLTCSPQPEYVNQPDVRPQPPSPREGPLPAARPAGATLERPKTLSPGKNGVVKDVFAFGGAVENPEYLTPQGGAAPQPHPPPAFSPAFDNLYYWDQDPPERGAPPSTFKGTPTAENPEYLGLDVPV
Source text: as §1

[7] = system: mammalian tumor cell lines such as PC-3, LNCAP, U87, Huh-7, HepG2 and MDA-MB-468; experiment: Cell proliferation/survival MTT assay in tumor cell lines; assay type: cell-based; conditions: 5 days (120 h) culture; cell line not specified; read-out: IC50, inhibition of tumor cell growth (MTT)
Experimental: The cytotoxic or cytostatic activity of Formula I-III exemplary compounds was measured by establishing proliferating mammalian tumor cell lines such as PC-3, LNCAP, U87, Huh-7, HepG2 and MDA-MB-468 in a cell culture medium, adding a test compound, culturing the cells for a period of 5 days by measuring cell viability via MTT assays. Dose response data were obtained for each test compound and the degree of inhibition of tumor cell growth was expressed as an IC50 value. […] For example. For example, compounds of example 14, 15, 46,29, 45, 49, 122, 88, 54, 55, 58, 59, 63, 64, 66, 67, 68, 113, 86, 90.
PC-3 (or U87) cells were seeded in 96-well plates at low density (at 2,000 cells per well) in media supplemented with 10% FBS (growth media) and transferred to serum-free media (1% FBS) after 24 h. Designated concentrations of drug were added to each well. The cells were incubated for 120 h. At the end of drug exposure, 20 μL/well of MTT solution was added. After 4 h at 37° C. in a humidified 5% CO2 atmosphere, the absorbance at 490 nm was recorded by using a microplate reader. IC50 was calculated using GraphPad Prism version 5 for Windows. The curves were fit using a nonlinear regression model with a log (inhibitor) versus response formula.

[8] = system: PC-3; experiment: NCI60 panel growth inhibition, PC-3; assay type: cell-based; conditions: Homo sapiens
Experimental: (§2) Cell growth inhibitory activities against cancer cells of the present compounds were also evaluated by submitting selected the example compounds to US NCI-Chemotherapeutic Agents Repository for screening against NCI60 panel. The United States NCI-60 platform is a cancer cell platform established with 60 different human cancer cell lines from 9 different kinds of organs. This platform represents the biological characteristics of the corresponding tumor type. The drugs were screened by measuring the ability of each test compound at a range of concentrations to inhibit the growth of various tumor cells.

[9] = system: MCF-7; experiment: NCI60 panel growth inhibition, MCF-7; assay type: cell-based; conditions: Homo sapiens, MCF7
Experimental: as §2

[10] = system: HCT-116; experiment: NCI60 panel growth inhibition, HCT-116; assay type: cell-based; conditions: Homo sapiens
Experimental: as §2

[11] = system: NCI-H23; experiment: NCI60 panel growth inhibition, NCI-H23; assay type: cell-based; conditions: Homo sapiens
Experimental: as §2

[12] = system: NCI-H460; experiment: NCI60 panel growth inhibition, NCI-H460; assay type: cell-based; conditions: Homo sapiens
Experimental: as §2

[13] = system: SKOV-3; experiment: NCI60 panel growth inhibition, SKOV-3; assay type: cell-based; conditions: Homo sapiens, SK-OV-3
Experimental: as §2

[14] = system: A549; experiment: NCI60 panel growth inhibition, A549; assay type: cell-based; conditions: Homo sapiens
Experimental: as §2

[15] = system: NCI 60 human cell lines; experiment: NCI60 panel growth inhibition, average over 60 cell lines; assay type: cell-based
Experimental: as §2

[16] = Metabolic stability in human liver microsome (HLM); assay type: in vitro ADME; conditions: incubation with human liver microsome for 60 min
Experimental: (§3) Active mTOR inhibitors in enzymatic and/or cell-based assays herein were evaluated for pharmacokinetic properties. Preferable compounds are with pharmacokinetic properties of low clearance, long half-life and/or good oral bioavailability (Fpo). In vitro, selected example compounds were evaluated for metabolic stability by incubating with human liver microsome (HLM) for 60 min. Compounds that were metabolized slower (i.e. higher % remaining) are preferred. […] The more metabolic stable example compounds in the HLM assay were further evaluated for pharmacokinetic properties in vivo. In a representative experiment, selected example compounds were dosed to rats intravenously (IV, 5 mg/kg, 30% PEG400+30% PG+1% DMSO in saline) and orally (PO, 10 mg/kg, 2.4% DMSO+0.1% Tween80 in 0.5% CMC-Na), rat blood samples were taken at designed time points after dosing and analyzed for tested drug concentrations using LC-MS/MS. Pharmacokinetic parameters were derived from the time curve of drug concentrations.

[17] = Rat pharmacokinetic study (IV and PO); assay type: in vivo; conditions: for AUC(0-t) / Cmax / MRT / clearance / half-life / Tmax / bioavailability: blood; for bioavailability: PO 10 mg/kg vs IV 5 mg/kg, read-out: Fpo (oral bioavailability)
Experimental: as §3

[18] = Stability noted on isolation of the compound; assay type: physicochemical; conditions: after Prep-TLC purification
Experimental: To a mixture of compound 33 (80 mg, 0.28 mmol), compound 2 (22 mg, 0.09 mmol) and 2M Na2CO3 (1.2 mL) was added dioxane (6 mL). N2 was bubbled through the solution for 1.5 minutes, at which time Pd(dppf)Cl2 (12 mg, […]) was added. The reaction was stirred at 100° C. for 1 hour under N2. After cooling to room temperature, Ethyl acetate was added and the resulting slurry was sonicated and filtered. Additional ethyl acetate was used to wash the solid. The combined organic extracts were concentrated and the crude material was purified by Prep-TLC using Petroleum ether:Ethyl acetate (3:1) affording to Example 33 (10 mg),and the compound was unstable. ^1H NMR (400 MHz, CDCl3): δ 8.83 (s, 1H), 7.68-7.64 (m, 1H), 6.74-6.78 (m, 1H), 6.70-6.73 (m, 1H), 5.53 (bs, 2H), 4.11-4.04 (m, 4H), 3.87-3.82 (m, 4H). ESI-MS (M+H)^+: 366.1

Structure (SMILES) | inhibition at 0.1 µM [1] | inhibition at 1 µM [3] | inhibition at 1 µM [4] | inhibition at 1 µM [5] | inhibition at 1 µM [6] | IC50 [7] | GI50 [8] | GI50 [9] | GI50 [10] | GI50 [11] | GI50 [12] | GI50 [13] | GI50 [14] | GI50 [15] | metabolic stability in HLM [16] | AUC(0-t) ([17]; IV 5 mg/kg) | Cmax ([17]; IV 5 mg/kg) | MRT ([17]; IV 5 mg/kg) | clearance ([17]; IV 5 mg/kg) | half-life ([17]; IV 5 mg/kg) | other results
O=C(Nc1ccc(-c2nc(N3CCOCC3)c3cccn3n2)cc1)Nc1cccnc1 [Example 14] | 87% | 8% | 1% | -1% | -8% | < 500 nM | 51 nM | 48.3 nM | 41 nM | 269 nM | 142 nM | 98.7 nM | 244 nM | 120 nM | metabolically stable | 10100 ng·h/mL | 6560 ng/mL | 1.7 h | 10.3 mL/min/kg | 1.3 h | inhibition at 0.1 µM [2]: 11%; CL ([17]; PO 10 mg/kg): 30.13 mL/min/kg; AUC(0-t) ([17]; PO 10 mg/kg): 4900 ng·h/mL; Cmax ([17]; PO 10 mg/kg): 784 ng/mL; MRT ([17]; PO 10 mg/kg): 5.71 h; Tmax ([17]; PO 10 mg/kg): 1 h; half-life ([17]; PO 10 mg/kg): 3.28 h; bioavailability [17]: 22%
CN(C)C1CCN(C(=O)c2ccc(NC(=O)Nc3ccc(-c4nc(N5CCOCC5)c5cccn5n4)cc3)cc2)CC1 [Example 15] | 98% | 8% | 4% | -2% | -7% | < 500 nM | 25 nM | < 10 nM | 65.7 nM | 123 nM | 67 nM | 46.3 nM | 54.5 nM | 76 nM | metabolically stable | 3430 ng·h/mL | 4710 ng/mL | 5.57 h | 17.8 mL/min/kg | 4.98 h | inhibition at 0.1 µM [2]: 54%
Nc1ncc(-c2nc(N3CCOCC3)c3cccn3n2)c(C(F)(F)F)n1 [Example 33] |  |  |  |  |  |  |  |  |  |  |  |  |  |  |  |  |  |  |  |  | stability of the isolated compound [18]: unstable
CN1CCN(C(=O)c2ccc(NC(=O)Nc3ccc(-c4nc(N5CCOCC5)c5cccn5n4)cc3)cc2)CC1 [Example 46] | 86% | 11% | -3% | 0% | -6% | < 500 nM | 23 nM | 14.4 nM | 60.2 nM | 96.2 nM | 59.7 nM | 26.8 nM | 66.5 nM | 59 nM | metabolically stable | 8760 ng·h/mL | 8460 ng/mL | 3.66 h | 8.28 mL/min/kg | 3.25 h | 
OCCNC(=S)Nc1ccc(-c2nc(N3C[C@H]4CC[C@@H](C3)O4)c3cccn3n2)cc1 [Example 122] | 94% | -10% | 0% | 1% | -1% | < 500 nM | 41 nM | 26.8 nM | 364 nM | 70.3 nM | 35.9 nM | 18.9 nM | 110 nM | 62 nM | metabolically stable | 11400 ng·h/mL | 4700 ng/mL | 3.03 h | 7.35 mL/min/kg | 2.13 h | inhibition at 0.1 µM [2]: 8%; CL ([17]; PO 10 mg/kg): 13.3 mL/min/kg; AUC(0-t) ([17]; PO 10 mg/kg): 11900 ng·h/mL; Cmax ([17]; PO 10 mg/kg): 1910 ng/mL; MRT ([17]; PO 10 mg/kg): 7.33 h; Tmax ([17]; PO 10 mg/kg): 0.833 h; half-life ([17]; PO 10 mg/kg): 4.72 h; bioavailability [17]: 48%
